Laboratory results published in US20230159511A1, “TETRAHYDROISOQUINOLINE COMPOUNDS AS NRF2 ACTIVATORS” (C4X Discovery Limited, priority 2020, published 2023).
pEC50, pIC50: −log10 of the molar value. Read-outs that look alike come from different tables or passages of the source.

Key:
[1] = biological target: T1, human KEAP1 (N-term, residues 321-609) (Homo sapiens, UniProt Q14145); assay: KEAP1 Kelch Fluorescence Polarization (FP) Assay; format: binding; conditions: inhibition of Kelch domain-NRF2 interaction; 2 nM FITC-labelled NRF2 peptide, 25 nM KEAP1, 1 h room temperature; compounds below 10 nM cannot be differentiated
T1 construct: human KEAP1 (N-term, residues 321-609)
Summary of the method: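 Compounds in 12-point curves (top 10 μM) displaced 2 nM FITC-labelled NRF2 peptide from 25 nM KEAP1 residues 321-609 over 1 h at room temperature. Polarization read at 470/530 nm, window set by 50 μM unlabelled peptide; four-parameter fit gave IC50, floor 10 nM.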

[2] = system: NRF2 mediated gene NAD(P)H:quinone acceptor oxidoreductase 1 (NQO1) in BEAS-2B cells; assay: Beas2B NQO1 mRNA Cell Based Assay; design: species or system human; conditions: Homo sapiens
Procedure: Beas2B NQO1 mRNA Cell Based Assay
The up regulation of the NRF2 mediated gene NAD(P)H:quinone acceptor oxidoreductase 1 (NQO1) was measured using the following assay method: BEAS-2B cells (ATCC CRL-9609) were plated in 96-well clear plates at 20,000 cells/well in 75 μL of cell culture media and incubated overnight (37° C., 5% CO2). On day 2, 25 μL of compound or controls were added to the cells for 24 h. On day 3, the medium was aspirated from the plate and the Cells-to-CT™ 1-Step TaqMan® Kit (Ambion A25603) was used to perform expression analysis directly from cultured cells without RNA purification according to the manufacturer's instructions.
Briefly, cells were washed with ice cold PBS and 22.5 μL of room-temperature DNase/Lysis solution was added to the cells and incubated at room temperature for 5 minutes. To stop the reaction, 2.25 μL of stop solution was added to the cell lysate. The samples were diluted 1:5 using nuclease free water and 2.5 μL transferred into the PCR plate. Real-time PCR was performed using the C-1000 Thermal Cycler (Bio-Rad) using human beta actin as the internal control. The cDNA was amplified with a specific primer for NQO1 using the 1-step RT-PCR master mix (Ambion Cells-to-CTTM 1-Step TaqMan® Kit A25603). The primers/probes sets that were used for amplification of cDNA were obtained from TaqMan Gene Expression Assays (Applied Biosystems). The comparative CT (ΔΔCT) relative quantification method was used to calculate the relative mRNA level of the target gene NQO1 as described in the Applied Biosystems Chemistry Guide. The data are expressed as an increase in target gene mRNA compared to vehicle (0.1% DMSO) control and the EC50 values were determined by fitting the data to a four parameter logistic fit using XLfit or XE Runner within ActivityBase.

[3] = BEAS-2B cells, compound for 24 h, increase in NQO1 mRNA compared to vehicle (0.1% DMSO) control, read-out: EC50

T1 sequence (Q14145 321-609): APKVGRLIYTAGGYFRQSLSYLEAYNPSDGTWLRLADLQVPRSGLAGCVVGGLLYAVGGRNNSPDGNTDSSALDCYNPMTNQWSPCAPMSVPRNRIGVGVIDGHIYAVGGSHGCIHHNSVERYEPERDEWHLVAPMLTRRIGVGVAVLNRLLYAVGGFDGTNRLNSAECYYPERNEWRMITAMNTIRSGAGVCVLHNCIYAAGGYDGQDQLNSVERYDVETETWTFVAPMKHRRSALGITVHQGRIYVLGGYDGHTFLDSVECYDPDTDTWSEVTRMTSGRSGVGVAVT

SMILES	pIC50 [1]	pEC50 [2, 3]	pEC50 ([2]; BEAS-2B, 24 h)
CNC(=O)[C@H]1CCCC[C@H]1C(=O)N1CCc2c(Cl)ccc(OCc3nnn(C)c3C(F)F)c2[C@H]1CN1CCCC1=O [Example 58, (1S,2R)-2-((S)-5-chloro-8-((5-(difluoromethyl)-1-methyl-1H-1,2,3-triazol-4-yl)methoxy)-1-((2-oxopyrrolidin-1-yl)methyl)-1,2,3,4-tetrahydroisoquinoline-2-carbonyl)-N-methylcyclohexane-1-carboxamide]	7.96	6.69	
CNC(=O)[C@H]1CCCC[C@H]1C(=O)N1CCc2c(Cl)ccc(OCc3cccnc3)c2[C@H]1CN1CCCC1=O [Example 60, (1S,2R)-2-((S)-5-chloro-1-((2-oxopyrrolidin-1-yl)methyl)-8-(pyridin-3-ylmethoxy)-1,2,3,4-tetrahydroisoquinoline-2-carbonyl)-N-methylcyclohexane-1-carboxamide]	7.14	6.19	
CNC(=O)[C@H]1CCCC[C@H]1C(=O)N1CCc2c(Cl)ccc(OCc3cccnn3)c2[C@H]1CN1CCCC1=O [Example 61, (1S,2R)-2-((S)-5-chloro-1-((2-oxopyrrolidin-1-yl)methyl)-8-(pyridazin-3-ylmethoxy)-1,2,3,4-tetrahydroisoquinoline-2-carbonyl)-N-methylcyclohexane-1-carboxamide]	7.47	5.97	
CNC(=O)[C@H]1CCCC[C@H]1C(=O)N1CCc2c(Cl)ccc(OCc3cnccn3)c2[C@H]1CN1CCCC1=O [Example 62, (1S,2R)-2-((S)-5-chloro-1-((2-oxopyrrolidin-1-yl)methyl)-8-(pyrazin-2-ylmethoxy)-1,2,3,4-tetrahydroisoquinoline-2-carbonyl)-N-methylcyclohexane-1-carboxamide]	7.09	5.84	
CNC(=O)[C@H]1CCCC[C@H]1C(=O)N1CCc2c(Cl)ccc(OCc3ccccn3)c2[C@H]1CN1CCCC1=O [Example 63, (1S,2R)-2-((S)-5-chloro-1-((2-oxopyrrolidin-1-yl)methyl)-8-(pyridin-2-ylmethoxy)-1,2,3,4-tetrahydroisoquinoline-2-carbonyl)-N-methylcyclohexane-1-carboxamide]	6.47	< 5.00	
CNC(=O)[C@H]1CCCC[C@H]1C(=O)N1CCc2c(Cl)ccc(OCc3cncnc3)c2[C@H]1CN1CCCC1=O [Example 64, (1S,2R)-2-((S)-5-chloro-1-((2-oxopyrrolidin-1-yl)methyl)-8-(pyrimidin-5-ylmethoxy)-1,2,3,4-tetrahydroisoquinoline-2-carbonyl)-N-methylcyclohexane-1-carboxamide]	7.39	5.24	
CNC(=O)[C@H]1CCCC[C@H]1C(=O)N1CCc2c(Cl)ccc(OCCc3cn(C)nn3)c2[C@H]1CN1CCCC1=O [Example 66, (1S,2R)-2-((S)-5-chloro-8-(2-(1-methyl-1H-1,2,3-triazol-4-yl)ethoxy)-1-((2-oxopyrrolidin-1-yl)methyl)-1,2,3,4-tetrahydroisoquinoline-2-carbonyl)-N-methylcyclohexane-1-carboxamide]	6.82	5.25	
CNC(=O)N1CCC[C@H]1C(=O)N1CCc2c(Cl)ccc(OCc3nnn(C)c3C(F)F)c2[C@H]1CN1CCCC1=O [Example 67, (S)-2-((S)-5-chloro-8-((5-(difluoromethyl)-1-methyl-1H-1,2,3-triazol-4-yl)methoxy)-1-((2-oxopyrrolidin-1-yl)methyl)-1,2,3,4-tetrahydroisoquinoline-2-carbonyl)-N-methylpyrrolidine-1-carboxamide]	7.54		5.87
CNC(=O)[C@H]1CCCC[C@H]1C(=O)N1CCc2c(Cl)ccc(OCc3cnc4c(c3)ncn4C)c2[C@H]1CN1CCCC1=O [Example 68, (1S,2R)-2-((S)-5-chloro-8-((3-methyl-3H-imidazo[4,5-b]pyridin-6-yl)methoxy)-1-((2-oxopyrrolidin-1-yl)methyl)-1,2,3,4-tetrahydroisoquinoline-2-carbonyl)-N-methylcyclohexane-1-carboxamide]	7.89	6.84	
CNC(=O)[C@@]1(C)CCCC[C@H]1C(=O)N1CCc2c(Cl)ccc(OCc3nnn(C)c3C(F)F)c2[C@H]1CN1CCCC1=O [Example 69, (1S,2R)-2-((S)-5-chloro-8-((5-(difluoromethyl)-1-methyl-1H-1,2,3-triazol-4-yl)methoxy)-1-((2-oxopyrrolidin-1-yl)methyl)-1,2,3,4-tetrahydroisoquinoline-2-carbonyl)-N,1-dimethylcyclohexane-1-carboxamide]	7.85	6.62	
CNC(=O)[C@H]1CCCC[C@H]1C(=O)N1CCc2c(Cl)ccc(OCc3noc4ncccc34)c2[C@H]1CN1CCCC1=O [Example 70, (1S,2R)-2-((S)-5-chloro-8-(isoxazolo[5,4-b]pyridin-3-ylmethoxy)-1-((2-oxopyrrolidin-1-yl)methyl)-1,2,3,4-tetrahydroisoquinoline-2-carbonyl)-N-methylcyclohexane-1-carboxamide]	7.54	6.53	
CNC(=O)[C@H]1CCCC[C@H]1C(=O)N1CCc2c(Cl)ccc(OCc3ccc4c(C)noc4n3)c2[C@H]1CN1CCCC1=O [Example 71, (1S,2R)-2-((S)-5-chloro-8-((3-methylisoxazolo[5,4-b]pyridin-6-yl)methoxy)-1-((2-oxopyrrolidin-1-yl)methyl)-1,2,3,4-tetrahydroisoquinoline-2-carbonyl)-N-methylcyclohexane-1-carboxamide]	7.77	6.94	
CNC(=O)[C@H]1CCCC[C@H]1C(=O)N1CCc2c(Cl)ccc(OCc3ccc4c(c3)nnn4C)c2[C@H]1CN1CCCC1=O [Example 72, (1S,2R)-2-((S)-5-chloro-8-((1-methyl-1H-benzo[d][1,2,3]triazol-5-yl)methoxy)-1-((2-oxopyrrolidin-1-yl)methyl)-1,2,3,4-tetrahydroisoquinoline-2-carbonyl)-N-methylcyclohexane-1-carboxamide]	7.57	6.22	
CNC(=O)[C@H]1CCCC[C@H]1C(=O)N1CCc2c(Cl)ccc(OCc3nnc4ccccn34)c2[C@H]1CN1CCCC1=O [Example 73, (1S,2R)-2-((S)-8-([1,2,4]triazolo[4,3-a]pyridin-3-ylmethoxy)-5-chloro-1-((2-oxopyrrolidin-1-yl)methyl)-1,2,3,4-tetrahydroisoquinoline-2-carbonyl)-N-methylcyclohexane-1-carboxamide]	8.03	6.54	
CNC(=O)[C@H]1CCCC[C@H]1C(=O)N1CCc2c(Cl)ccc(OCc3cn(C)nn3)c2[C@H]1CN1CCCC1=O [Example 74, (1S,2R)-2-((S)-5-chloro-8-((1-methyl-1H-1,2,3-triazol-4-yl)methoxy)-1-((2-oxopyrrolidin-1-yl)methyl)-1,2,3,4-tetrahydroisoquinoline-2-carbonyl)-N-methylcyclohexane-1-carboxamide]	7.80	6.48	
CNC(=O)[C@H]1CCCC[C@H]1C(=O)N1CCc2c(Cl)ccc(OCc3cn4cccnc4n3)c2[C@H]1CN1CCCC1=O [Example 75, (1S,2R)-2-((S)-5-chloro-8-(imidazo[1,2-a]pyrimidin-2-ylmethoxy)-1-((2-oxopyrrolidin-1-yl)methyl)-1,2,3,4-tetrahydroisoquinoline-2-carbonyl)-N-methylcyclohexane-1-carboxamide]	7.14	5.66	
CNC(=O)[C@H]1CCCC[C@H]1C(=O)N1CCc2c(Cl)ccc(OCc3nnn(C)c3C(F)F)c2[C@H]1CN1Cc2ccccc2C1=O [Example 76, (1S,2R)-2-((S)-5-chloro-8-((5-(difluoromethyl)-1-methyl-1H-1,2,3-triazol-4-yl)methoxy)-1-((1-oxoisoindolin-2-yl)methyl)-1,2,3,4-tetrahydroisoquinoline-2-carbonyl)-N-methylcyclohexane-1-carboxamide]	7.96	6.78	
CNC(=O)[C@H]1CCCC[C@H]1C(=O)N1CCc2c(Cl)ccc(OCc3nnc4ccccn34)c2[C@H]1CN1Cc2ccccc2C1=O [Example 77, (1S,2R)-2-((S)-8-([1,2,4]triazolo[4,3-a]pyridin-3-ylmethoxy)-5-chloro-1-((1-oxoisoindolin-2-yl)methyl)-1,2,3,4-tetrahydroisoquinoline-2-carbonyl)-N-methylcyclohexane-1-carboxamide]	8.14	7.11	
